The record followed here is patent EP2951180B1, “2,6,7,8 SUBSTITUTED PURINES AS HDM2 INHIBITORS” (Merck Sharp & Dohme Corp., priority 2013, dated 2014).

SMILES strings stand for the structures.

In the first assay the target is T1, HDM2 (Homo sapiens, UniProt Q00987).
T1 construct: Thioredoxin (N); made in house; host or cells: E. coli strain BL21(DE3)Rosetta
T1 sequence (Q00987 17-125): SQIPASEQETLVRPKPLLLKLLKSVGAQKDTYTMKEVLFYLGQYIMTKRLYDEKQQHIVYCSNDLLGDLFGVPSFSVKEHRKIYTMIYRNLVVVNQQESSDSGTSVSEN
Kind of assay: FRET assay (HDM2 inhibition; method not described in this part). It is filed as binding. Conditions: Table 1.
One may read the IC50 as the midpoint of a concentration-inhibition curve. Compound `Cc1ccc(OC(F)(F)F)c(-c2nc3nc(C(=O)O)nc(N[C@H](C)C4CCC4)c3n2Cc2ccc(C(F)(F)F)cc2)c1` [Example 1.84, 6-{[(1R)-1-cyclobutylethyl]amino}-8-[5-methyl-2-(trifluoromethoxy)phenyl]-7-[4-(trifluoromethyl)benzyl]-7H-purine-2-carboxylic acid] came in with an IC50 of 9.68 nM.
Same read-out and setting: the value for `C[C@@H](Nc1nc(C(=O)O)nc2nc(-c3ccc(N(C)C)cc3)n(Cc3ccc(C(F)(F)F)cc3)c12)C1CCC1` [Example 1.113, 6-{[(1R)-1-cyclobutylethyl]amino}-8-[4-(dimethylamino)phenyl]-7-[4-(trifluoromethyl)benzyl]-7H-purine-2-carboxylic acid] was 716 nM.
Compound `Cc1cccc(-c2nc3nc(C(=O)O)nc(N[C@H](C)C4CCC4)c3n2Cc2ccc(C(F)(F)F)cc2)n1` [Example 1.19] had an IC50 of 42.5 nM.
Same read-out and setting: under `Cc1cnc(-c2nc3nc(C(=O)O)nc(N[C@H](C)C4CCC4)c3n2Cc2ccc(OC(F)(F)F)c(F)c2)cc1C(C)C` [Example 1.90, 6-{[(1R)-1-cyclobutylethyl]amino}-7-[3-fluoro-4-(trifluoromethoxy)benzyl]-8-[5-methyl-4-(1-methylethyl)pyridin-2-yl]-7H-purine-2-carboxylic acid] stands 24.7 nM.
Same read-out and setting: the value for `CCc1ccc(Cl)c(-c2nc3nc(C(=O)O)nc(N[C@H](C)C4CCC4)c3n2Cc2ccc(C(F)(F)F)cc2)c1` [Example 1.2, (R)-8-(2-chloro-5-ethylphenyl)-6-((1-cyclobutylethyl)amino)-7-(4-(trifluoromethyl)benzyl)-7H-purine-2-carboxylic acid] was 23.7 nM; that for `COc1ccc(C(C)C)cc1-c1nc2nc(C(=O)O)nc(N[C@H](C)C3CCC3)c2n1Cc1ccc(C(F)(F)F)cc1` [Example 1.41, 6-{[(1R)-1-cyclobutylethyl]amino}-8-[2-methoxy-5-(1-methylethyl)phenyl]-7-[4-(trifluoromethyl)benzyl]-7H-purine-2-carboxylic acid] was 27.5 nM.
`Cc1c(C(C)C)ccnc1-c1nc2nc(C(=O)O)nc(N[C@H](C)C3CCC3)c2n1Cc1ccc(OC(F)(F)F)c(F)c1` [Example 1.91, 6-{[(1R)-1-cyclobutylethyl]amino}-7-[3-fluoro-4-(trifluoromethoxy)benzyl]-8-[3-methyl-4-(1-methylethyl)pyridin-2-yl]-7H-purine-2-carboxylic acid] came in with a half-maximal inhibitory concentration (IC50) of 22.3 nM.
`CC(C)Cc1ccnc(-c2nc3nc(C(=O)O)nc(N[C@H](C)C4CCC4)c3n2Cc2ccc(C(F)(F)F)cc2)c1` [Example 1.85, 6-{[(1R)-1-cyclobutylethyl]amino}-8-[4-(2-methylpropyl)pyridin-2-yl]-7-[4-(trifluoromethyl)benzyl]-7H-purine-2-carboxylic acid] showed an IC50 of 9.69 nM.
Same read-out and setting: the value for `C[C@@H](Nc1nc(C(=O)O)nc2nc(-c3ccc(N4CCOCC4)cc3)n(Cc3ccc(C(F)(F)F)cc3)c12)C1CC1` [Example 1.97, 6-{[(1R)-1-cyclopropylethyl]amino} -8-(4-morpholin-4-ylphenyl)-7-[4-(trifluoromethyl)benzyl]-7H-purine-2-carboxylic acid] was 1540 nM.
`C[C@@H](Nc1nc(C(=O)O)nc2nc(-c3cc(C4CCCCC4)ccn3)n(Cc3ccc(C(F)(F)F)cc3)c12)C1CCC1` [Example 1.56, 6-{[(1R)-1-cyclobutylethyl]amino}-8-(4-cyclohexylpyridin-2-yl)-7-[4-(trifluoromethyl)benzyl]-7H-purine-2-carboxylic acid] came in with an IC50 of 6.99 nM.
The same measure, in the same setting: under `Cc1ccc(-c2nc3nc(C(=O)O)nc(N[C@H](C)C4CCC4)c3n2Cc2ccc(C(F)(F)F)cc2)cc1F` [Example 1.102, 6-{[(1R)-1-cyclobutylethyl]amino}-8-(3-fluoro-4-methylphenyl)-7-[4-(trifluoromethyl)benzyl]-7H-purine-2-carboxylic acid] stands 20.3 nM; under `C[C@@H](Nc1nc(C(=O)O)nc2nc(-c3cc(C(F)(F)F)ccn3)n(Cc3ccc(C(F)(F)F)cc3)c12)C1CCC1` [Example 1.60, 6-{[(1R)-1-cyclobutylethyl]amino}-7-[4-(trifluoromethyl)benzyl] - 8-[4-(trifluoromethyl)pyridin-2-yl]-7H-purine-2-carboxylic acid], 15.2 nM.

Still in this assay, the particulars now being: Table 2.
The compound `CCc1cccc(-c2nc3nc(C(=O)O)nc(N[C@H](C)C4CCC4)c3n2Cc2ccc(C(F)(F)F)cc2)c1` [Example 2.23, 6-{[(1R)-1-cyclobutylethyl]amino}-8-(3-ethylphenyl)-7-[4-(trifluoromethyl)benzyl]-7H-purine-2-carboxylic acid] came in with an IC50 of 16.7 nM.
The same measure, in the same setting: under `C[C@@H](Nc1nc(C(=O)O)nc2nc(-c3ccc4c(c3)CCC4)n(Cc3ccc(C(F)(F)F)cc3)c12)C1CC1` [Example 2.74, 6-{[(1R)-1-cyclopropylethyl]amino}-8-(2,3-dihydro-1H-inden-5-yl)-7-[4-(trifluoromethyl)benzyl]-7H-purine-2-carboxylic acid] stands 205 nM.
The same measure, in the same setting: under `COc1cccc(-c2nc3nc(C(=O)O)nc(N[C@H](C)C4CCC4)c3n2Cc2ccc(C(F)(F)F)cc2)c1` [Example 2.1, (R)-6-((1-cyclobutylethyl)amino)-8-(3-methoxyphenyl)-7-(4-(trifluoromethyl)benzyl)-7H-purine-2-carboxylic acid] stands 37.5 nM.
`C[C@@H](Nc1nc(C(=O)O)nc2nc(-c3ccc(Cl)cc3Cl)n(Cc3ccc(C(F)(F)F)cc3)c12)C1CC1` [Example 2.58, 6-{[(1R)-1-cyclopropylethyl]amino}-8-(2,4-dichlorophenyl)-7-[4-(trifluoromethyl)benzyl]-7H-purine-2-carboxylic acid]: half-maximal inhibition (IC50) was put at 213 nM.
On the same count and under the same terms, under `C[C@@H](Nc1nc(C(=O)O)nc2nc(-c3ccc4sccc4c3)n(Cc3ccc(Cl)cc3)c12)C1CCC1` [Example 2.10, 8-(1-benzothiophen-5-yl)-7-(4-chlorobenzyl)-6-{[(1R)-1-cyclobutylethyl]amino}-7H-purine-2-carboxylic acid] stands 7.2 nM; under `C[C@@H](Nc1nc(C(=O)O)nc2nc(C3CCCCC3)n(Cc3ccc(C(F)(F)F)cc3)c12)C1CCC1` [Example 2.4, (R)-6-((1-cyclobutylethyl)amino)-8-cyclohexyl-7-(4-(trifluoromethyl)benzyl)-7H-purine-2-carboxylic acid], 11.5 nM.
On the same count and under the same terms, under `COc1ccc(-c2nc3nc(C(=O)O)nc(N[C@H](C)C4CC4)c3n2Cc2ccc(C(F)(F)F)cc2)cc1Cl` [Example 2.66, 8-(3-chloro-4-methoxyphenyl)-6-{[(1R)-1-cyclopropylethyl]amino}-7-[4-(trifluoromethyl)benzyl]-7H-purine-2-carboxylic acid] stands 112 nM; under `Cc1cccc(C)c1-c1nc2nc(C(=O)O)nc(N[C@H](C)C3CC3)c2n1Cc1ccc(C(F)(F)F)cc1` [Example 2.62, 6-{[(1R)-1-cyclopropylethyl]amino}-8-(2,6-dimethylphenyl)-7-[4-(trifluoromethyl)benzyl]-7H-purine-2-carboxylic acid], 65.6 nM.

Still in this assay, the particulars now being: Table 3.
`CC(C)c1cnc(-c2nc3nc(C(=O)O)nc(N[C@H](C)C4CCC4)c3n2Cc2ccc(C(F)(F)F)cc2)s1` [Example 3.3, (R)-6-((1-cyclobutylethyl)amino)-8-(5-isopropylthiazol-2-yl)-7-(4-(trifluoromethyl)benzyl)-7H-purine-2-carboxylic acid]: the IC50 turned out to be 57.9 nM.
Still for that read-out and setting: the value for `CC(C)c1csc(-c2nc3nc(C(=O)O)nc(N[C@H](C)C4CCC4)c3n2Cc2ccc(C(F)(F)F)cc2)n1` [Example 3.6, 6-{[(1R)-1-cyclobutylethyl]amino}-8-[4-(1-methylethyl)-1,3-thiazol-2-yl]-7-[4-(trifluoromethyl)benzyl] -7H-purine-2-carboxylic acid] was 312 nM.
Still for that read-out and setting: the value for `C[C@@H](Nc1nc(C(=O)O)nc2nc(-c3nccn3C)n(Cc3ccc(C(F)(F)F)cc3)c12)C1CCC1` [Example 3.1, (R)-6-((1-cyclobutylethyl)amino)-8-(1-methyl-1H-imidazol-2-yl)-7-(4-(trifluoromethyl)benzyl)-7H-purine-2-carboxylic acid] was 161 nM.
On the same count and under the same terms, under `C[C@@H](Nc1nc(C(=O)O)nc2nc(-c3ncccn3)n(Cc3ccc(C(F)(F)F)cc3)c12)C1CCC1` [Example 3.4, 6-{[(1R)-1-cyclobutylethyl]amino}-8-pyrimidin-2-yl-7-[4-(trifluoromethyl)benzyl] -7H-purine-2-carboxylic acid] stands 69.8 nM.

Staying with this assay, now noted: Table 4.
The compound `COCCCOc1ccc(C)cc1-c1nc2nc(C(=O)O)nc(N[C@H](C)C3CC3)c2n1Cc1ccc(Cl)cc1` [Example 4.5, (R)-7-(4-chlorobenzyl)-6-((1-cyclopropylethyl)amino)-8-(2-(3-methoxypropoxy)-5-methylphenyl)-7H-purine-2-carboxylic acid] returned an IC50 of 162 nM.
The same measure, in the same setting: the value for `Cc1ccc(OCCCO)c(-c2nc3nc(C(=O)O)nc(N[C@H](C)C4CC4)c3n2Cc2ccc(Cl)cc2)c1` [Example 4.20, (R)-7-(4-chlorobenzyl)-6-((1-cyclopropylethyl)amino)-8-(2-(3-hydroxypropoxy)-5-methylphenyl)-7H-purine-2-carboxylic acid] was 112 nM.

The same assay, now with this note: Table 5.
`Cc1cccc(-c2nc3nc(C(=O)O)nc(N[C@H](C)C4CC4)c3n2Cc2ccc(C(F)(F)F)c(Cl)c2)c1` [Example 5.15, 7-[3-chloro-4-(trifluoromethyl)benzyl]-6-{[(1R)-1-cyclopropylethyl]amino}-8-(3-methylphenyl)-7H-purine-2-carboxylic acid] came in with a half-maximal inhibitory concentration (IC50) of 609 nM.
`Cc1cccc(-c2nc3nc(C(=O)O)nc(N[C@H](C)C4CC4)c3n2Cc2ccccc2C(F)(F)F)c1` [Example 5.16, 6-{[(1R)-1-cyclopropylethyl]amino}-8-(3-methylphenyl)-7-[2-(trifluoromethyl)benzyl]-7H-purine-2-carboxylic acid] registered an IC50 of 8330 nM.
For the compound `Cc1cccc(-c2nc3nc(C(=O)O)nc(N[C@H](C)C4CC4)c3n2C(C)c2ccc(Cl)cc2)c1` (stereo partly drawn) [Example 5.1, 7-(1-(4-chlorophenyl)ethyl)-6-(((R)-1-cyclopropylethyl)amino)-8-(3-methylphenyl)-7H-purine-2-carboxylic acid], half-maximal inhibition (IC50) was put at 855 nM.
